Source: ChEMBL document CHEMBL5241090, “A comprehensive overview of β-carbolines and its derivatives as anticancer agents” (Eur J Med Chem, 2021)
In brackets after ≈: the same amount, converted by molar mass.

Experiments:
Type in all cases: functional, cell-based
[1] = tested on: CNE-2; experiment: Cytotoxicity against human CNE-2 cells incubated for 48 hrs by MTT assay; conditions: CNE-2, 48 h
[2] = tested on: HCT-116; experiment: Cytotoxicity against human HCT-116 cells
[3] = tested on: NCI-H1299; experiment: Cytotoxicity against human NCI-H1299 cells
[4] = tested on: A549; experiment: Cytotoxicity against human A549 cells
[5] = tested on: SK-OV-3; experiment: Antiproliferative activity against human SK-OV-3 cells
[6] = tested on: A2780; experiment: Antiproliferative activity against human A2780 cells
[7] = Cytotoxicity against mouse P388 cells
[8] = tested on: KB; experiment: Cytotoxicity against human Vincristine-resistant KB cells; conditions: pooled result: one value given for 6 cell lines, strains, targets or settings
[9] = tested on: MCF7; experiment: Cytotoxicity against human MCF7 cells incubated for 48 hrs by neutral red dye based assay; conditions: MCF7, 48 h
[10] = tested on: A549; experiment: Cytotoxicity against human A549 cells incubated for 48 hrs by neutral red dye based assay; conditions: A549, 48 h
[11] = tested on: HCT-116; experiment: Cytotoxicity against human HCT-116 cells incubated for 48 hrs by neutral red dye based assay; conditions: HCT-116, 48 h
[12] = tested on: L5178Y; experiment: Cytotoxicity against mouse L5178Y cells incubated 72 hrs; conditions: for EC50: time 72 hrs, read-out: ED50 (the source's name)
[13] = tested on: Panel NCI-60 (60 carcinoma cell lines); experiment: Cytotoxicity against human Panel NCI-60 (60 carcinoma cell lines)
[14] = tested on: L1210; experiment: Cytotoxicity against mouse L1210 cells
[15] = tested on: HeLa; experiment: Cytotoxicity against human HeLa cells
[16] = tested on: HT-29; experiment: Growth inhibition of human HT-29 cells incubated for 72 hrs by SRB assay; conditions: HT-29, 72 h
[17] = tested on: MDA-MB-231; experiment: Growth inhibition of human MDA-MB-231 cells incubated for 72 hrs by SRB assay; conditions: MDA-MB-231, 72 h
[18] = tested on: A549; experiment: Growth inhibition of human A549 cells incubated for 72 hrs by SRB assay; conditions: A549, 72 h
[19] = tested on: HL-60; experiment: Cytotoxicity against human HL-60 cells; conditions: Homo sapiens, HL-60; read-out: IC50

Work on `COc1c(O)c(=O)n2c3ccccc3c3ccnc1c32` yielded an IC50 [1] of 7.96 µg/mL (≈ 29.9 µM).

`CC(=O)c1nc(C(=O)NCCc2ccc(O)cc2)cc2c1[nH]c1ccccc12` gave an IC50 [2] of 37.9 µM, an IC50 [3] of 37.9 µM and an IC50 [4] of 37.9 µM.

`CC(=O)c1nc(C(=O)NCCc2ccccc2)cc2c1[nH]c1ccccc12` showed an IC50 [2] of 37.4 µM, an IC50 [3] of 37.4 µM and an IC50 [4] of 37.4 µM.

Work on `C=Cc1ncc(OC)c2c1[nH]c1c(OC)cccc12` yielded an IC50 [5] of 11.9 µg/mL and an IC50 [6] of 2.02 µg/mL.

For `C=Cc1ncc(OC)c2c3ccccc3n(OC)c12`, the IC50 [5] was 66.6 µM and the IC50 [6] was 14.8 µM.

Work on `O=c1ccc2nccc3c4cccc(O)c4n1c23` yielded an IC50 [1] of 13.4 µg/mL (≈ 56.9 µM).

For `N[C@@H]1CSCON2CCc3c([nH]c4cc(Br)ccc34)[C@H]12`, the IC50 [7] was 0.01 µg/mL (≈ 0.0282 µM).

With `O=c1ccc2nccc3c4ccc(O)cc4n1c23` the IC50 [8] was 1.5 µg/mL (≈ 6.35 µM) and the IC50 [7] was 1.5 µg/mL (≈ 6.35 µM).

`C=Cc1nccc2c1[nH]c1c(O)cccc12` showed an IC50 [7] of 0.1 µg/mL (≈ 0.476 µM).

Compound `O=C1NCCc2c1[nH]c1ccccc21` has an IC50 [9] of 8.27 µg/mL (≈ 44.4 µM), an IC50 [10] of 10.1 µg/mL (≈ 54.3 µM) and an IC50 [11] of 7.45 µg/mL (≈ 40 µM).

With `[O-][N+]1=C(C2=C[C@@]3(O)CC/C=C\CCCCN4CC[C@@H]2[C@]2(CC5/C=C\CCCCN5[C@H]23)C4)c2[nH]c3ccccc3c2CC1` (stereo partly specified) the EC50 [12] was 1.6 µg/mL (≈ 2.82 µM).

`COc1ccc2c3cc[n+]([O-])c4ccc(=O)n(c2c1)c34` showed an IC50 [8] of 3.8 µg/mL (≈ 14.3 µM) and an IC50 [7] of 3.8 µg/mL (≈ 14.3 µM).

`O=c1ccc2c3c(cc[n+]2[O-])c2ccc(O)cc2n13` showed an IC50 [8] of 3.5 µg/mL (≈ 13.9 µM) and an IC50 [7] of 3.5 µg/mL (≈ 13.9 µM).

For `[O-][n+]1ccc2c([nH]c3ccccc32)c1C1=C[C@@]2(O)CC/C=C\CCCCN3CC[C@@H]1[C@]1(CC4/C=C\CCCCN4[C@H]12)C3` (stereo partly specified), the EC50 [12] was 1.6 µg/mL (≈ 2.83 µM).

`[O-][n+]1ccc2c([nH]c3ccccc32)c1C1=C[C@@]2(O)CC/C=C\CCCCN3CC[C@@H]1[C@]1(CC/C=C\CCCCN[C@H]12)C3` gave an EC50 [12] of 3.2 µg/mL (≈ 5.65 µM).

With `COc1ccc2c3ccnc4ccc(=O)n(c2c1)c43` the IC50 [8] was 1.4 µg/mL (≈ 5.59 µM) and the IC50 [7] was 1.4 µg/mL (≈ 5.59 µM).

`Fc1ccc(-c2nc(-c3nc4ccc(Cl)cc4[nH]3)cc3c2[nH]c2ccccc23)cc1` gave an IC50 [13] of 300 nM.

In the case of `COc1ccc2nc(-c3cc4c([nH]c5ccccc54)c(-c4ccc(F)c(F)c4)n3)[nH]c2c1`, the IC50 [13] is reported as 300 nM.

`Cn1c2cnccc2c2c(Br)c(O)ccc21` gave an IC50 [14] of 2.4 µg/mL (≈ 8.66 µM) and an IC50 ([12]; 72 h) of 1.8 µg/mL (≈ 6.5 µM).

`COc1ccccc1-c1c(-c2ccccc2)ncc2[nH]c3ccccc3c12` showed an IC50 [15] of 20.8 µM and an IC50 [4] of 8.2 µM.

`COc1ccc(-c2nc(-c3nc4ccc(OC)cc4[nH]3)cc3c2[nH]c2ccccc23)cc1` showed an IC50 [13] of 300 nM.

`O=C(O)c1c(-c2c[nH]c3cc(O)ccc23)ncc2[nH]c3ccc(O)cc3c12` showed an IC50 [16] of 42 µg/mL (≈ 117 µM), an IC50 [17] of 25 µg/mL (≈ 69.6 µM) and an IC50 [18] of 30 µg/mL (≈ 83.5 µM).

For `COc1ccc(-c2nc(-c3nc4ccc(F)cc4[nH]3)cc3c2[nH]c2ccccc23)cc1`, the IC50 [13] was 300 nM.

`C[n+]1ccc2c3ccccc3n3c2c1CC(=O)C3=O` gave an IC50 [1] of 23.7 µg/mL.

`Nc1nccc(C2=NCCc3c2[nH]c2ccccc32)n1` showed an IC50 [9] of 2.81 µg/mL (≈ 10.7 µM), an IC50 [10] of 1.92 µg/mL (≈ 7.29 µM) and an IC50 [11] of 0.59 µg/mL (≈ 2.24 µM).

In the case of `O=C1CCCCN2[C@@H](C1)C[C@]13CN4CCCC/C=C\CC[C@](O)(C=C(c5nccc6c5[nH]c5c(O)cccc56)[C@@H]1CC4)[C@H]23`, the IC50 [7] is reported as 5 µg/mL (≈ 8.61 µM).

Compound `Nc1nccc(-c2nccc3c2[nH]c2c([C@@H]4c5ccccc5N=C5[C@@H](O)CCN54)c(O)ccc23)n1` has an IC50 [19] of 39 µM and an IC50 [4] of 55.7 µM.

`CNC(=O)CCCc1nccc2c1[nH]c1ccccc12` gave an IC50 [9] of 3.5 µg/mL (≈ 13.1 µM), an IC50 [10] of 2.15 µg/mL (≈ 8.04 µM) and an IC50 [11] of 0.67 µg/mL (≈ 2.51 µM).

With `COc1c(OC)c2nccc3c4cc(O)ccc4n(c1=O)c23` the IC50 [1] was 11.6 µg/mL (≈ 39.2 µM).

For `COc1ccc2c3c([nH]c2c1)[C@]1(NCC3)C(C)=C(C)c2nc3ccccc3c(=O)n21`, the IC50 [19] was 9.4 µM.
